The target of experiment [1] is T1, Gal4-RORγ-LBD (Homo sapiens, UniProt P51449).
T1 construct: expressed in transfected cells
T1 sequence (P51449 269-508 limits assumed): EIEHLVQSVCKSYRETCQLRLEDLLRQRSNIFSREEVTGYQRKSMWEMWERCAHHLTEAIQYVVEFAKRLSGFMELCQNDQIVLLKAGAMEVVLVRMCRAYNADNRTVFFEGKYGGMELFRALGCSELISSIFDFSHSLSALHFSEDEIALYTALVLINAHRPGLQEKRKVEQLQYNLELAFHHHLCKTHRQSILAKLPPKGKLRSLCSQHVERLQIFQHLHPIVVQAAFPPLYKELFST
Kind of experiment: Gal4-RORγ Luciferase Reporter Assay in HEK-293T Cells. Format: cell-based. The following applies: HEK-293 cells, luciferase reporter; for Gal4-RORγ Assay Max Response: maximum response. As for the experimental part: Assay procedures and results are described below.
In the following protocol, HEK-293 cells were transfected with a construct comprising the Gal4 DNA binding domain fused to the ligand binding domain of RORγ (Gal4-RORγ-LBD) in a pcDNA3.1neo plasmid, and also with a reporter construct comprising pGL4.31 Gal4-luciferase (Promega). Control cells were prepared similarly using empty pcDNA3.1neo and pGL4.31 vectors.
Trans-IT reagent (Mirus, 60 μL) at room temperature was added drop wise to OptiMEM (Invitrogen, 1.5 ml). This reagent mixture was mixed by inversion then incubated for 5 to 30 minutes at room temperature. It then was added to a solution of both expression vectors (5 μg each), mixed, and incubated at room temperature for about 20 minutes. HEK-293 cells were harvested from incubation flasks by removing the media, treating with TrypLE Express (Invitrogen), and incubating until the cells detached from the bottom of the flask (approximately 2-5 minutes). 10 Million cells were collected by centrifugation and re-suspended in 10 mL of Dulbecco's Modified Eagle Medium, High Glucose (DMEM, Invitrogen) containing 10% Fetal Bovine Serum and 100 IU each of penicillin and streptomycin. The re-suspended cells and the transfection mixture were added to a T75 flask, mixed and incubated overnight at 37° C. and 5% CO2.
The cells were harvested as described above, counted, and centrifuged to obtain the desired number of cells, then re-suspended in complete growth media at 0.75×10^6 cells/mL. The RORγ antagonist, ursolic acid, was added to the cells at a final concentration of […]. Cells were plated at 20 µL of cell suspension/well (10,000-15,000 cells/well) in white tissue culture treated 384 well plates. Test compounds were dissolved at 10 mM in DMSO then diluted into complete growth medium to 5× the final intended test concentration. These drug stock solutions, 5 µL/well were added to the tissue culture plate. The final DMSO concentration was 0.2%. The plates were briefly centrifuged then incubated overnight at 37° C. and 5% CO2. To conduct the assay, the tissue culture plates were allowed to equilibrate to room temperature and One-Glo luciferase reagent (Promega, 25 µL/well) was added. The plates were briefly centrifuged then incubated at room temperature for 10 minutes. The luciferase intensity was read on an Envision plate reader (Perkin Elmer). […] The luciferase signal in the absence of ursolic acid or test compound is defined at 100. The Max Response is the upper plateau in the signal as determined by line-fit using a 4-parameter logistic model in PRISM (GraphPad).

The target in experiment [2] is T2, RORγ-LBD (Homo sapiens, UniProt P51449).
T2 construct: made in house; host or cells: SF9 cells (baculovirus); used as diluted lysate
T2 sequence (P51449 269-508 limits assumed): T1 sequence (P51449 269-508 limits assumed)
Kind of experiment: RORγ-Ligand Binding Domain (LBD) TR-FRET Assay.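 For TR-FRET Assay Max Response: 665/615 nm signal ratio set to 100 without ursolic acid or test compound.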 In kind it is biochemical. In a few lines: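 TR-FRET read-out using a biotin-tagged SRC1 coactivator LXXLL peptide (200 nM final), with the antagonist ursolic acid present at 2 μM final. Receptor is His-tagged LBD expressed in SF9 cells, ~3 nM final in pH 7.0 Tris/KCl/EDTA/DTT/BSA buffer; compounds in 1% DMSO final.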

Molecules are shown by their SMILES.

In the case of `CCOc1nn(CC)cc1S(=O)(=O)N1C[C@H](CCC(=O)OC)Oc2ccc(/C=C/c3c(F)cccc3C(F)(F)F)cc21` [Example 87, Methyl (S,E)-3-(4-((3-ethoxy-1-ethyl-1H-pyrazol-4-yl)sulfonyl)-6-(2-fluoro-6-(trifluoromethyl)styryl)-3,4-dihydro-2H-benzo[b][1,4]oxazin-2-yl)propanoate], the values for the 50% effective concentration (EC50) in experiment [1] (with ursolic acid) and in experiment [2] (RORγ-LBD TR-FRET) were 500 to 5000 nM and less than 500 nM, respectively.

`Cc1cccnc1/C=C/c1ccc2c(c1)N(S(=O)(=O)c1cccc(C(F)(F)F)c1)C[C@H](CCC(=O)O)O2` [Example 89BJ, (S,E)-3-(6-(2-(3-methylpyridin-2-yl)vinyl)-4-((3-(trifluoromethyl)phenyl)sulfonyl)-3,4-dihydro-2H-benzo[b][1,4]oxazin-2-yl)propanoic acid]: the EC50 in experiment [1] (with ursolic acid) is 500 to 5000 nM; in experiment [2] (RORγ-LBD TR-FRET) it was less than 500 nM.

Regarding `CCn1cc(S(=O)(=O)N2C[C@H](CCNC(C)=O)Oc3ccc(/C=C(\C)c4c(F)cccc4Cl)cc32)c(Cl)n1` [Example 116E, (S,E)-N-(2-(4-((3-chloro-1-ethyl-1H-pyrazol-4-yl)sulfonyl)-6-(2-(2-chloro-6-fluorophenyl)-prop-1-en-1-yl)-3,4-dihydro-2H-benzo[b][1,4]oxazin-2-yl)ethyl)acetamide], in experiment [1] (in presence of ursolic acid), the EC50 was less than 500 nM and the “Gal4-RORγ Assay Max Response” value was “** (a value in the range of greater than 90 to 150)”. Besides, the EC50 in experiment [2] (RORγ-LBD TR-FRET assay) is less than 500 nM. The “TR-FRET Assay Max Response” value in experiment [2] (RORγ-LBD TR-FRET assay, maximum response) is given as “*** (a value in the range of greater than 150 to 200)”.

In the case of `O=C(O)CC[C@H]1CN(S(=O)(=O)c2cccc(OC(F)F)c2)c2cc(/C=C/c3c(Cl)cccc3Cl)ccc2O1` [Example 89CT, (S,E)-3-(6-(2,6-dichlorostyryl)-4-((3-(difluoromethoxy)phenyl)-sulfonyl)-3,4-dihydro-2H-benzo[b][1,4]oxazin-2-yl)propanoic acid], the concentration for a half-maximal effect (EC50) in experiment [1] (with ursolic acid) and in experiment [2] (RORγ-LBD TR-FRET) was less than 500 nM each time.

As for `C/C(=C\c1ccc2c(c1)N(S(=O)(=O)c1cccc(C(F)(F)F)c1)C[C@H](CCC(=O)N1CC(C#N)C1)O2)c1c(F)cccc1Cl` [Example 127M, (S,E)-1-(3-(6-(2-(2-chloro-6-fluorophenyl)-prop-1-en-1-yl)-4-((3-(trifluoromethyl)phenyl)-sulfonyl)-3,4-dihydro-2H-benzo[b][1,4]oxazin-2-yl)propanoyl)azetidine-3-carbonitrile], in experiment [1] (in presence of ursolic acid), the EC50 was less than 500 nM and the “Gal4-RORγ Assay Max Response” value was “** (a value in the range of greater than 90 to 150)”.

Consider `CC/C(=C\c1ccc2c(c1)N(S(=O)(=O)c1cccc(C(F)(F)F)c1)C[C@H](CCC(=O)O)O2)c1ccccc1Cl` [Example 36A, (S,E)-3-(6-(2-(2-chlorophenyl)but-1-en-1-yl)-4-((3-(trifluoromethyl)-phenyl)sulfonyl)-3,4-dihydro-2H-benzo[b][1,4]oxazin-2-yl)propanoic acid], for which the EC50 in experiment [1] (with ursolic acid) was less than 500 nM.

`O=C(O)CC[C@H]1CN(S(=O)(=O)c2cccc(C(F)(F)F)c2)c2cc(/C=C3\CCc4ccccc43)ccc2O1` [Example 38C, (S,E)-3-(6-((2,3-dihydro-1H-inden-1-ylidene)methyl)-4-((3-(trifluoromethyl)phenyl)sulfonyl)-3,4-dihydro-2H-benzo[b][1,4]-oxazin-2-yl)propanoic acid] yielded an EC50 in experiment [1] (with ursolic acid) of 500 to 5000 nM.

Consider `COC(=O)CC[C@H]1CN(S(=O)(=O)c2cccc(C(F)(F)F)c2)c2cc(/C=C(\C)c3ccccc3OC)ccc2O1` [Example 86AJ, (S,E)-methyl 3-(6-(2-(2-methoxyphenyl)prop-1-en-1-yl)-4-((3-(trifluoromethyl)phenyl)sulfonyl)-3,4-dihydro-2H-benzo[b][1,4]-oxazin-2-yl)propanoate], for which the EC50 in experiment [1] (with ursolic acid) was less than 500 nM.

In the case of `COc1cc(S(=O)(=O)N2C[C@H](CCC(=O)O)Oc3ccc(/C=C(\C)C4CCCCC4)cc32)ccc1F` [Example 190, (S,E)-3-(6-(2-cyclohexylprop-1-en-1-yl)-4-((4-fluoro-3-methoxyphenyl)sulfonyl)-3,4-dihydro-2H-benzo[b][1,4]oxazin-2-yl)propanoic acid], the 50% effective concentration (EC50) in experiment [1] (in presence of ursolic acid) is more than 10000 nM.

These data come from US9896441B2 (Lycera Corporation, priority 2014, dated 2018).
